Reference: patent US4073908A, “8-Amino-theophylline derivatives and therapeutic applications thereof” (Laboratoire le Brun S.A., priority 1975, dated 1978)

Key:
Acute toxicity in rats = format: in vivo; conditions: rat, in vivo, po, single administration
Source text: (§1) Acute toxicity in mice by the sub-cutaneous and oral routes and in rats by the oral route was investigated by determination of the death rate following a single administration of increasing dosages.
(§2) Symbol > means that the LD50 is not attained at the dosage indicated.

Acute toxicity in mice = format: in vivo; conditions: mouse, in vivo, single administration
Source text: as §1, §2

[1] = test system: aggressiveness subsequent to extended isolation in mice; assay: Anti-aggressive: aggressiveness subsequent to extended isolation, mice; format: in vivo; conditions: Mus musculus, oral, read-out: Oral AD50, isolated mice
Method: (§3) c. aggressiveness subsequent to extended isolation, in mice,
(§4) In all cases, the AD50 values were determined by the oral route.

[2] = test system: aggressiveness subsequent to apomorphine injection in rats; assay: Anti-aggressive: aggressiveness subsequent to apomorphine injection, rats; format: in vivo; conditions: Rattus norvegicus, oral, apomorphine injection 1 mg/kg, read-out: Oral AD50, apomorphine, in rats
Method: (§5) b. aggressiveness subsequent to apomorphine injection (1 mg/kg, in vivo) in rats,
as §4

[3] = test system: aggressiveness subsequent to electric shocks in rats; assay: Anti-aggressive: aggressiveness subsequent to electric shocks, rats; format: in vivo; conditions: Rattus norvegicus, oral, read-out: Oral AD50, electric shock in rats
Method: (§6) a. aggressiveness subsequent to electric shocks in mice and rats,
as §4

[4] = test system: aggressiveness subsequent to electric shocks in mice; assay: Anti-aggressive: aggressiveness subsequent to electric shocks, mice; format: in vivo; conditions: Mus musculus, oral, read-out: Oral AD50, electric shock in mice
Method: as §6, §4

[5] = test system: stereotypy induced by apomorphine injection in rats; assay: Effect on stereotypy induced by apomorphine injection; format: in vivo
Source text: e. Effect on stereotypy induced by apomorphine injection in rats.

rats [6] = assay: Acute toxicity in rats; format: in vivo; conditions: single administration
Source text: as §1, §2

rotarod test in mice = assay: Incapacitating effect: rotarod test; format: in vivo; conditions: compared with chlordiazepoxide
Source text: a. Incapacitating effect: rotarod test in mice.

catalepsy and ptosis = assay: Neuroleptic effects: catalepsy and ptosis; conditions: in vivo
[7] = test system: aggressiveness in mice and rats; assay: Anti-aggressive tests overall; format: in vivo; conditions: oral
Method: as §6, §5, §3
(§7) d. aggressiveness in mice-killing rats.
as §4

rats [8] = assay: Oral subacute toxicity in rats; format: in vivo; conditions: 1 month old rats, up to a daily dosage of 100 mg/kg
Source text: Oral subacute toxicity in rats was investigated by determination of the death rate (if any), of the change in the weight of some organs, and by hematologic examinations, and the like.
Subacute toxicity in 1 month old rats, with compounds Nos. 11 and 18

learning in rats = assay: Effect on learning: Shuttle-box test; format: in vivo; conditions: compared with chlordiazepoxide
Source text: f. Effect on learning in rats: Shuttle-box test.

mice = assay: Acute toxicity in mice; format: in vivo; conditions: single administration
Source text: as §1, §2

[9] = test system: reserpine effect on temperature and ptosis; assay: Anti-reserpine effect on temperature and ptosis; format: in vivo; conditions: compared with Imipramine
Source text: b. Anti-reserpine effect on temperature and ptosis.

[10] = test system: cardiazol convulsions in mice; assay: Anti-convulsant effect with respect to cardiazol; format: in vivo; conditions: compared with chlordiazepoxide
Source text: c. Anti-convulsant effect with respect to cardiazol in mice.

[11] = test system: aggressiveness in mice-killing rats; assay: Anti-aggressive: aggressiveness in mice-killing rats; format: in vivo
Method: as §7, §4

[12] = test system: narcosis induced by pentobarbital in mice; assay: Effect on narcosis induced by pentobarbital; format: in vivo; conditions: compared with chlordiazepoxide
Source text: (§8) d. Effect on narcosis induced by pentobarbital and ethanol in mice.

[13] = test system: narcosis induced by ethanol in mice; assay: Effect on narcosis induced by ethanol; format: in vivo
Source text: as §8

[14] = test system: bronchospasm induced by histamine injection in guinea-pigs; assay: Anti-histaminic: bronchospasm induced by histamine injection in guinea-pigs; format: in vivo; conditions: Cavia porcellus, oral, read-out: oral AD50, anti-histaminic activity
Method: This activity was determined according to the technique of the bronchospasm induced by histamine injection in guinea-pigs.

[15] = test system: cough induced by electric stimulation of the laryngeal nerve in cats; assay: Anti-tussive: cough induced by electric stimulation of the laryngeal nerve; format: in vivo
Source text: 6. Anti-tussive activity against cough induced by electric stimulation of the laryngeal nerve in cats.

[16] = test system: carrage enin-induced edema in rats; assay: Anti-inflammatory: carrageenin-induced edema in rats; format: in vivo; conditions: oral route
Method: The technique used was that of the carrage enin-induced edema in rats (oral route). The dosage which inhibits this edema by a factor of 50% was evaluated by interpolation.

[17] = po, read-out: LD50, oral route, mice
[18] = sc, read-out: LD50, s.c. route, mice

Compound	LD50 (Acute toxicity in rats)	LD50 (Acute toxicity in mice; [17])	LD50 (Acute toxicity in mice; [18])	further results
Cc1cccc(N2CCN(CCN3CCn4c3nc3c4c(=O)n(C)c(=O)n3C)CC2)c1 [Compound 1]	> 100 mg/kg	> 300 mg/kg	> 300 mg/kg	–
Cc1ccc(N2CCN(CCN3CCn4c3nc3c4c(=O)n(C)c(=O)n3C)CC2)cc1C [Compound 2]	> 100 mg/kg	> 300 mg/kg	> 300 mg/kg	–
COc1cccc(N2CCN(CCN3CCn4c3nc3c4c(=O)n(C)c(=O)n3C)CC2)c1 [Compound 3]	> 100 mg/kg	> 300 mg/kg	> 300 mg/kg	ED50 [1]: 25 mg/kg; ED50 [2]: 180 mg/kg; ED50 [3]: 100 mg/kg; ED50 [4]: 30 mg/kg
COc1ccc(N2CCN(CCN3CCn4c3nc3c4c(=O)n(C)c(=O)n3C)CC2)cc1 [Compound 4]	> 100 mg/kg	> 300 mg/kg	> 300 mg/kg	–
Cn1c(=O)c2c(nc3n2CCN3CCN2CCN(c3cccc(C(F)(F)F)c3)CC2)n(C)c1=O [Compound 5]	> 100 mg/kg	> 300 mg/kg	> 300 mg/kg	–
Cn1c(=O)c2c(nc3n2CCN3CCN2CCN(c3cccc(F)c3)CC2)n(C)c1=O [Compound 6]	> 100 mg/kg	> 300 mg/kg	> 300 mg/kg	–
Cn1c(=O)c2c(nc3n2CCN3CCN2CCN(c3ccc(F)cc3)CC2)n(C)c1=O [Compound 7]	> 100 mg/kg	> 300 mg/kg	> 300 mg/kg	–
Cn1c(=O)c2c(nc3n2CCN3CCN2CCN(c3cccc(Br)c3)CC2)n(C)c1=O [Compound 8]	> 100 mg/kg	> 300 mg/kg	> 300 mg/kg	–
Cn1c(=O)c2c(nc3n2CCN3CCN2CCN(c3cccc(I)c3)CC2)n(C)c1=O [Compound 9]	> 100 mg/kg	> 300 mg/kg	> 300 mg/kg	–
Cn1c(=O)c2c(nc3n2CCN3CCN2CCN(c3ccccc3Cl)CC2)n(C)c1=O [Compound 10]	> 100 mg/kg	> 300 mg/kg	> 300 mg/kg	–
Cn1c(=O)c2c(nc3n2CCN3CCN2CCN(c3cccc(Cl)c3)CC2)n(C)c1=O [Compound 11]	–	–	> 300 mg/kg	apomorphinic anti-stereotypy [5]: absence of apomorphinic anti-stereotypy; LD50, oral route, rats (rats [6]): 1000 mg/kg; incapacitating effect (rotarod test in mice): does not, as the latter compound, exhibit incapacitating; ED50 [1]: 10 mg/kg; ED50 [2]: 140 mg/kg; ED50 [3]: 45 mg/kg; catalepsy (catalepsy and ptosis): absence of apomorphinic anti-stereotypy, of catalepsy; ptosis (catalepsy and ptosis): absence of apomorphinic anti-stereotypy, of catalepsy and of ptosis; anti-aggressive activity (in words) [7]: in most cases, are superior to those of chlordiazepoxide in the anti-aggressive tests; death rate (fatal issue) (rats [8]): No fatal issue was noted; learning-delaying effect (learning in rats): does not, as the latter compound, exhibit incapacitating, anti-convulsant, pentobarbitalor ethanol-induced narcosis-potentiating, or learning-delaying effects; LD50, oral route, mice (mice): 450 mg/kg; anti-reserpinic effect [9]: absence of anti-reserpinic effect; anti-convulsant effect [10]: does not, as the latter compound, exhibit incapacitating, anti-convulsant; ED50 ([11]; Rattus norvegicus, oral, read-out: Oral AD50, mice-killing rats): 50 mg/kg; activity in the mice-killing test in rats relative to Imipramine ([11]; compared with Imipramine): Superior to Imipramine in the mice-killing test in rats; ED50 [4]: 30 mg/kg; pentobarbital-induced narcosis-potentiating effect [12]: does not, as the latter compound, exhibit incapacitating, anti-convulsant, pentobarbitalor ethanol-induced narcosis-potentiating; ethanol-induced narcosis-potentiating effect [13]: does not, as the latter compound, exhibit incapacitating, anti-convulsant, pentobarbitalor ethanol-induced narcosis-potentiating
Cn1c(=O)c2c(nc3n2CCN3CCN2CCN(c3ccc(Cl)cc3)CC2)n(C)c1=O [Compound 12]	> 100 mg/kg	120 mg/kg	> 300 mg/kg	ED50 [14]: 1.5 mg/kg; anti-tussive activity (in words) [15]: most active compound investigated; anti-inflammatory activity (in words) [16]: the more active, the activities being substantially equivalent to those of phenyl butazone
Cn1c(=O)c2c(nc3n2CCN3CCN2CCN(c3cccc(Cl)c3Cl)CC2)n(C)c1=O [Compound 13]	> 100 mg/kg	> 300 mg/kg	> 300 mg/kg	–
Cn1c(=O)c2c(nc3n2CCN3CCN2CCN(c3ccc(Cl)c(Cl)c3)CC2)n(C)c1=O [Compound 14]	> 100 mg/kg	> 300 mg/kg	> 300 mg/kg	–
Cn1c(=O)c2c(nc3n2CCN3CCN2CCN(c3cc(Cl)cc(Cl)c3)CC2)n(C)c1=O [Compound 15]	> 100 mg/kg	> 300 mg/kg	> 300 mg/kg	–
CC(CN1CCn2c1nc1c2c(=O)n(C)c(=O)n1C)N1CCN(c2cccc(Cl)c2)CC1 (stereo not shown) [Compound 16]	> 100 mg/kg	> 300 mg/kg	> 300 mg/kg	–
Cn1c(=O)c2c(nc3n2CCN3CCCN2CCN(c3cccc(Cl)c3)CC2)n(C)c1=O [Compound 17]	> 100 mg/kg	> 300 mg/kg	> 300 mg/kg	–
CC(CN1CCCn2c1nc1c2c(=O)n(C)c(=O)n1C)N1CCN(c2cccc(Cl)c2)CC1 (stereo not shown) [Compound 19]	> 100 mg/kg	> 300 mg/kg	> 300 mg/kg	–
Cn1c(=O)c2c(nc3n2CCCN3CCCN2CCN(c3cccc(Cl)c3)CC2)n(C)c1=O [Compound 20]	> 100 mg/kg	> 300 mg/kg	> 300 mg/kg	anti-inflammatory activity (in words) [16]: the more active, the activities being substantially equivalent to those of phenyl butazone
CC1CN(CCN2CCn3c2nc2c3c(=O)n(C)c(=O)n2C)CCN1c1cccc(Cl)c1 (stereo not shown) [Compound 21]	> 100 mg/kg	> 300 mg/kg	> 300 mg/kg	–
CC1CN(CCN2CCn3c2nc2c3c(=O)n(C)c(=O)n2C)CCN1c1ccc(Cl)cc1 (stereo not shown) [Compound 22]	> 100 mg/kg	> 300 mg/kg	> 300 mg/kg	–
CCC1CN(CCN2CCn3c2nc2c3c(=O)n(C)c(=O)n2C)CCN1c1cccc(Cl)c1 (stereo not shown) [Compound 24]	> 100 mg/kg	300 mg/kg	> 300 mg/kg	–
Cn1c(=O)c2c(nc3n2CCN3CCN2CCN(c3cccc(Cl)c3)C(COc3ccccc3)C2)n(C)c1=O (stereo not shown) [Compound 25]	> 100 mg/kg	> 300 mg/kg	> 300 mg/kg	–
Cn1c(=O)c2c(nc3n2CCCCN3CCN2CCN(c3cccc(Cl)c3)CC2)n(C)c1=O [Compound 26]	> 100 mg/kg	> 300 mg/kg	> 300 mg/kg	–
Cn1c(=O)c2c(nc3n2CCCCN3CCCN2CCN(c3cccc(Cl)c3)CC2)n(C)c1=O [Compound 27]	> 100 mg/kg	> 300 mg/kg	> 300 mg/kg	–
Cn1c(=O)c2c(nc3n2CCCN3CCCN2CCN(c3ccc(Cl)cc3)CC2)n(C)c1=O [Compound 28]	> 100 mg/kg	> 300 mg/kg	> 300 mg/kg	–
Cn1c(=O)c2c(nc3n2CCN3CCCCCCN2CCN(c3cccc(Cl)c3)CC2)n(C)c1=O [Compound 29]	> 100 mg/kg	> 300 mg/kg	> 300 mg/kg	–
Cn1c(=O)c2c(nc3n2CCCN3CCCCCCN2CCN(c3cccc(Cl)c3)CC2)n(C)c1=O [Compound 30]	> 100 mg/kg	> 300 mg/kg	> 300 mg/kg	–
Cn1c(=O)c2c(nc3n2CCN3CCN2CCN(c3cccc(Cl)c3)CC2)n(C)c1=O [Compound 31]	–	–	–	LD50, oral route, rats (rats [6]): > 100 mg/kg; LD50, oral route, mice (mice): 150 mg/kg; LD50, s.c. route, mice (mice; s.c. route): > 300 mg/kg
